US4772590A, “Oily composition of aclarubicin or hydrochloride thereof” (priority 1983, dated 1988)
Converted amounts (≈) assume the structure as drawn. Counter-ions that a name gives are not always drawn. Like-named read-outs stand apart in the source and are kept apart here.

What was measured:
[1] = solubility of aclarubicin or its hydrochloride in solvents and in fats and oils; format: physicochemical; conditions: for solubility: organic solvent or mixture
[2] = solubilization of aclarubicin or aclarubicin hydro-chloride in fats and oils by acids; format: physicochemical

**Q.** Which solubility in acetone ([1]; acetone) does the source give for `CC[C@@]1(O)C[C@H](O[C@H]2C[C@H](N(C)C)[C@H](O[C@H]3C[C@H](O)[C@H](O[C@H]4CCC(=O)[C@H](C)O4)[C@H](C)O3)[C@H](C)O2)c2c(cc3c(c2O)C(=O)c2c(O)cccc2C3=O)[C@H]1C(=O)OC` [Aclarubicin hydrochloride] here?
**A.** freely soluble

**Q.** And the solubility in ether ([1]; ether)?
**A.** practically insoluble

**Q.** What about the “solubility in fats and oils” value ([1]; fats and oils) of the same molecule?
**A.** very sparingly soluble

**Q.** What about the solubility in methanol ([1]; methanol) of the same molecule?
**A.** freely soluble

**Q.** What about the solubility in n-hexane ([1]; n-hexane) of the same molecule?
**A.** practically insoluble

**Q.** And the solubility ([1]; olive oil, olive oil, aclarubicin hydrochloride, read-out: solubility in olive oil)?
**A.** ~4 µg/mL

**Q.** And the solubility ([1]; sesame oil, sesame oil, aclarubicin hydrochloride, read-out: solubility in sesame oil)?
**A.** 16 µg/mL

**Q.** What about the solubility in water ([1]; water) of the same molecule?
**A.** freely soluble

**Q.** What does the source list for `CC[C@@]1(O)C[C@H](O[C@H]2C[C@H](N(C)C)[C@H](O[C@H]3C[C@H](O)[C@H](O[C@H]4CCC(=O)[C@H](C)O4)[C@H](C)O3)[C@H](C)O2)c2c(cc3c(c2O)C(=O)c2c(O)cccc2C3=O)[C@H]1C(=O)OC` [Aclarubicin, methyl(1R, 2R, 4S)-2-ethyl-1,2,3,4,6,11-hexahydro-2,5,7-trihydroxy-6,11-dioxo-4-{[2,3,6-trideoxy-4-O-[2,6-dideoxy-4-O-((2R,6S)-tetrahydro-6-methyl-5-oxo-2H-pyran-2-yl)-α-1-lyxohexopyranocyl]-3-dimethylamino-α-1-lyxo-hexopyranocyl]oxy}-1-naphthacene carboxylate]?
**A.** solubility ([1]; olive oil, olive oil, aclarubicin, read-out: solubility in olive oil): 10000 µg/mL (≈ 12.3 mM); solubility ([1]; sesame oil, sesame oil, aclarubicin, read-out: solubility in sesame oil): 10000 µg/mL (≈ 12.3 mM)

**Q.** Which “dissolution of polycarboxylic acid in fats and oils” value [2] does the source give for `O=C(O)/C=C/C(=O)O` [fumaric acid] here?
**A.** not dissolved in fats and oils
